Results as given in patent publication US10947275B2, “Caged cell penetrating peptide-polymer conjugates for diagnostic and therapeutic applications” (Ben-Gurion University of the Negev Research and Development …, priority 2010, dated 2021).

Tests used:
PC-3 cells = assay: Light-mediated cytotoxicity, MTT assay, illumination time and dose dependence; format: cell-based; settings: 80 μM dose (or equivalent dose of M-(cCPP)-KLAK), 15 min of light illumination
Method: FIG. 6A depicts illumination time-dependence and dose-dependence of the viability of PC-3 cells incubated with 80 μM (solid blue), 40 μM (dashed blue), 20 μM (dots blue) M-(cCPP)-KLAK (KLAK equiv), 80 μM KLAK (solid green), and 80 μM M-(cCPP) (solid red), as determined by MIT assay. The results presented are the average of 3 independent experiments, in duplicates. Untreated control cells corresponded to 100% viability. FIG. 6B depicts light-induced cell cytotoxicity of polymer-KLAK conjugates and free KLAK against various cell-types including A431 cells (top left graph), PC-3 cells (top right graph), 3LL cells (bottom left graph) and SW480 cells (bottom right graph). Cells were incubated with 60 μM KLAK equivalent M-(cCPP)-KLAK (dark column), M-(cCPP) (gray column) or 60 μM KLAK (white column) and were illuminated immediately with UV light (365 nm) for 8 minutes followed by 2 hours incubation at 37° C. Cell viability was analyzed by MIT assay.
The cytotoxicity of M-cCPP-KLAK, M-cCPP and o(KIAKLAK) (SEQ ID NO: 5)2, was assessed using a modified 3-(4,5-dimethylthiazol-2-yl)-2,5-diphenyltetrazolinium bromide (MTT). All concentrations of KLAK-HPMA copolymers used for these experiments are expressed in KLAK equivalents. All solutions were sterilized by filtering through a 0.2-μm membrane filter. […] The absorbance of each sample was measured at 570 nm. […]

B16 cells = assay: Caging of CPP activity via reversible electrostatic interactions with polyanions, flow cytometry; format: cell-based; settings: for mean fluorescence intensity of HPMA-CPP-FITC after pre-treatment with polyanion (masking of CPP activity): polyanion mixed with HPMA-CPP-FITC for 10 min, versus conjugate alone
Method: FIG. 7A-FIG. 7D depict FACS analysis results of B-16 cells incubated with HPMA-CPP-FITC conjugate mixed with different polyanions (Hep, FI, PGA, HA, P-GG, LMWH, Amb) for 10 min, and then added to B16-cell monolayers. Control cells were treated with HPMA-CPP-FITC conjugate only. FIG. 7A depicts results of B-16 cells incubated with HPMA-CPP-FITC conjugate mixed with Hep or FI. FIG. 7B depicts results of B-16 cells incubated with HPMA-CPP-FITC conjugate mixed with PGA or HA. FIG. 7C depicts results of B-16 cells incubated with HPMA-CPP-FITC conjugate mixed with P-GG or LMWH. FIG. 7D depicts results of B-16 cells incubated with HPMA-CPP-FITC conjugate mixed with Amb.
FIG. 8A-FIG. 8D depict FACS analysis results of stability testing of HPMA-CPP-FITC polyanion complexes incubated with B-16 cells at different time points. FIG. 8A depicts results of B-16 cells incubated with a complex of HPMA-CPP-FITC and the polyanion Hep. FIG. 8B depicts results of B-16 cells incubated with a complex of HPMA-CPP-FITC and the polyanion FI. FIG. 8C depicts results of B-16 cells incubated with a complex of HPMA-CPP-FITC and the polyanion LMWH. FIG. 8D depicts results of B-16 cells incubated with a complex of HPMA-CPP-FITC and the polyanion Amb.
FIG. 9A-FIG. 9D depict the reversible masking of CPP activity by polyanion complexes via the addition of protamine. FIG. 9A depicts the reversible masking of CCP activity by polyanion complexes comprising the polyanion fucoidan via the addition or protamine. FIG. 9B depicts the reversible masking of CCP activity by polyanion complexes comprising the polyanion LMWH via the addition or protamine. FIG. 9C depicts the reversible masking of CCP activity by polyanion complexes comprising the polyanion Heparin via the addition or protamine. FIG. 9D depicts the reversible masking of CCP activity by polyanion complexes comprising the polyanion P-GG-OH via the addition or protamine.
FIG. 10 depicts FACS analysis results of polyanion release from HPMA-CPP-FITC complexes by protamine was at the following order: LMWH>P-GG100%>Fl>Hep.
HPMA-CPP-FITC conjugate was mixed with various polyanions such as Polyglutamic acid (PGA); Fucoidan (FI); Heparin sulfate (Hep) Hyaluronic acid (HA); Low molecular weight heparin (LMWH), Amberlite IR120 (Amb) or Polyglycylglycine (P-GG) at a weight ratio of 3:1 or 5:1 in PBS. The solutions were left for 10 min at room temperature to allow HPMA-CPP-FITC-polyanion complex formation, and then added to B16 cell monolayers in growth medium The reversibility of masking the CPP activity in complexes was assessed following the addition of the counter polycation, protamine to the incubation medium. B16 cells were treated with HPMA-CPP-FITC-polyanion complexes for 10 min, and then the counter polycation protamine (4.7 KDa, 10-50 μg/ml, at the same weight ratio of HPMA conjugate) was added to the cells. Control cells were treated with HPMA-CPP-FITC-polyanion complexes without protamin. After 1 h, the cells were washed with PBS, harvested with trypsin and the cell associated fluorescence was analyzed by flow cytometry.
HPMA-CPP-FITC conjugate was mixed with different polyanions (Hep, FI, PGA, HA, P-GG, LMWH, Amb) and then added to B16-cell monolayers and compared to control cells treated with HPMA-CPP-FITC conjugate alone (FIGS. 7A-7D).
The masking of CPP activity by the polyanion complexes was readily reversible following the addition of the polycation, protamine (4.7 KD) (FIGS. 9A-9D). Greater intensity is readily seen in protamine treated (black lines) versus untreated (gray lines) samples.
The efficiency of polyanion release from HPMA-CPP-FITC complexes by protamine was at the following order: LMWH>P-GG100%>FI>Hep (corresponding to outermost versus innermost graphs) (FIG. 10).

[1] = Uncaging kinetics of cCPP under UV illumination, HPLC; format: physicochemical; settings: cCPP 200 μM, 8 minutes UV illumination (700 μW/cm2; λ=365 nm), HPLC-UV 230 nm
Method: FIG. 2 depicts the uncaging kinetics of cCPP as a function of light illumination time (365 nm) as determined with HPLC.
Uncaging kinetics of cCPP. cCPP (200 μM) was dissolved in 100 μL MOPS buffer at pH=7.4 and exposed to UV light illumination (UV lamp 6 W; =365 nm). Aliquots (30 μL) were removed at various time points, immediately kept frozen, in dark until analyzed by HPLC. The molar fraction of cCPP was calculated from its HPLC peak area.
CPP with 3 Mtt-protected Lys, Ac-KRRMK^MttWK^MttK^Mtt (KRRMKWKXK SEQ ID NO: 6) was synthesized on a solid phase via Fmoc chemistry on a MBHA Resin. CPP was then modified to include 3 photolabile protecting groups on Lys side chains to give the caged CPP (cCPP), Ac-KRRMK^NvocWK^NvocK^Nvoc. The identity and purity (>90%) were determined by HPLC and MALDI-TOF mass spectrometer. In order to study the uncaging kinetics of the peptide, a solution of cCPP (200 μM) was exposed to UV light illumination (700 μW/cm2; λ=365 nm). Aliquots were removed at various time points, and then evaluated by high performance liquid chromatography with UV detection (HPLC-UV) at 230 nm. The molar fraction of cCPP was calculated from its HPLC peak (FIG. 2). 8 minutes of illumination were sufficient to attain >80% of uncaged CPP, and thus further experiments were therefore undertaken with 8-10 min of light illumination. […]

| Substance | toxicity towards PC-3 cells (PC-3 cells) | mean fluorescence intensity of HPMA-CPP-FITC after pre-treatment with polyanion (masking of CPP activity) (B16 cells) | order of efficiency of polyanion release from HPMA-CPP-FITC complexes by protamine (B16 cells) | uncaged CPP attained [1] [%] |
| --- | --- | --- | --- | --- |
| Levulinic acid-D(KLAKLAK)2 | no significant toxicity | – | – | – |
| Heparin sulfate | – | significantly reduced | LMWH>P-GG100%>FI>Hep | – |
| Ac-KRRMK^NvocWK^NvocK^Nvoc [cCPP] | – | – | – | > 80 |
| Low molecular weight heparin [LMWH] | – | significantly reduced | LMWH>P-GG100%>FI>Hep | – |
| Fucoidan [FI] | – | significantly reduced | LMWH>P-GG100%>FI>Hep | – |
